Assays:
Assay in all cases: relative viability (nuclei count vs DMSO), 5 days (fraction); higher = more cells survive
[1] = compound: C1COCCN1C2=NC(=NC3=C2OC4=C3C=CC=N4)C5=CC(=CC=C5)NC(=O)C6=CN=C(C=C6)N + N=C(N)NC(=N)NCCc1ccccc1 [Phenformin] (partner 250 µM)
How it was run: (§1)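 Each reported value is a median over duplicate plates. It expresses relative viability: treated-well nuclei count divided by vehicle-well nuclei count. Lung cancer cell lines in 1536-well plates were dosed by pin tool a day after seeding, alone with one drug or with a fixed anchor-drug dose plus five library-drug doses (not always all listed) in √10 steps, and nuclei were counted after 5 days.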

SGI-1776 + Phenformin = compound: CN1CCC(CNc2ccc3ncc(-c4cccc(OC(F)(F)F)c4)n3n2)CC1 [SGI-1776] + N=C(N)NC(=N)NCCc1ccccc1 [Phenformin] (partner 250 µM)
How it was run: as §1

SGI-1776 + Crizotinib = compound: CN1CCC(CNc2ccc3ncc(-c4cccc(OC(F)(F)F)c4)n3n2)CC1 [SGI-1776] + C[C@@H](Oc1cc(-c2cnn(C3CCNCC3)c2)cnc1N)c1c(Cl)ccc(F)c1Cl [Crizotinib] (partner 1 µM)
How it was run: as §1

Entinostat + Tozasertib = compound: Nc1ccccc1NC(=O)c1ccc(CNC(=O)OCc2cccnc2)cc1 [Entinostat] + Cc1cc(Nc2cc(N3CCN(C)CC3)nc(Sc3ccc(NC(=O)C4CC4)cc3)n2)n[nH]1 [Tozasertib] (partner 0.1 µM)
How it was run: as §1

Row | Cell Line | relative viability ([1]; first compound 0.02 µM) | relative viability ([1]; first compound 0.06325 µM) | relative viability ([1]; first compound 0.2 µM) | relative viability ([1]; first compound 0.6325 µM) | relative viability ([1]; first compound 2 µM) | relative viability (SGI-1776 + Phenformin; first compound 0.08 µM) | relative viability (SGI-1776 + Phenformin; first compound 0.8 µM) | relative viability (SGI-1776 + Phenformin; first compound 2.53 µM) | relative viability (SGI-1776 + Phenformin; first compound 8 µM) | relative viability (SGI-1776 + Crizotinib; first compound 0.08 µM) | relative viability (SGI-1776 + Crizotinib; first compound 0.8 µM) | relative viability (SGI-1776 + Crizotinib; first compound 2.53 µM) | relative viability (SGI-1776 + Crizotinib; first compound 8 µM) | relative viability (Entinostat + Tozasertib; first compound 0.02 µM) | relative viability (Entinostat + Tozasertib; first compound 0.06325 µM) | relative viability (Entinostat + Tozasertib; first compound 0.2 µM) | relative viability (Entinostat + Tozasertib; first compound 0.6325 µM) | relative viability (Entinostat + Tozasertib; first compound 2 µM)
1 | NCI-H1437 | 0.343 | 0.351 | 0.286 | 0.225 | 0.114 | 0.322 | 0.259 | 0.296 | 0.297 | 0.869 | 0.9 | 1.02 | 0.952 | 0.31 | 0.253 | 0.181 | 0.132 | 0.108
2 | EKVX | 0.223 | 0.21 | 0.207 | 0.216 | 0.181 | 0.237 | 0.241 | 0.24 | 0.241 | 0.847 | 1.01 | 0.977 | 0.882 | 0.384 | 0.414 | 0.323 | 0.234 | 0.192
3 | NCI-H460 | 0.554 | 0.57 | 0.512 | 0.144 | 0.0234 | 0.502 | 0.471 | 0.477 | 0.361 | 0.973 | 0.573 | 0.471 | 0.0428 | 0.395 | 0.0956 | 0.0498 | 0.0451 | 0.0275
4 | NCI-H1993 | 0.483 | 0.498 | 0.501 | 0.513 | 0.522 | 0.538 | 0.515 | 0.515 | 0.492 | 0.917 | 0.894 | 0.858 | 0.725 | 0.615 | 0.605 | 0.519 | 0.542 | 0.487
5 | HCC-78 | 0.716 | 0.654 | 0.761 | 0.681 | 0.642 | 0.779 | 0.775 | 0.695 | 0.592 | 0.352 | 0.311 | 0.346 | 0.318 | 0.577 | 0.432 | 0.248 | 0.241 | 0.173
6 | NCI-H2087 | 0.515 | 0.595 | 0.495 | 0.447 | 0.31 | 0.444 | 0.394 | 0.432 | 0.44 | 0.724 | 0.907 | 1.19 | 0.758 | 0.222 | 0.219 | 0.177 | 0.116 | 0.0873
7 | H3255 | 0.362 | 0.357 | 0.368 | 0.326 | 0.338 | 0.372 | 0.391 | 0.331 | 0.325 | 1.03 | 1.01 | 0.896 | 0.62 | 0.48 | 0.468 | 0.503 | 0.315 | 0.204
8 | NCI-H2126 | 0.535 | 0.553 | 0.524 | 0.461 | 0.441 | 0.543 | 0.509 | 0.535 | 0.473 | 1.01 | 1.04 | 1.08 | 0.968 | 0.812 | 0.758 | 0.614 | 0.38 | 0.262
9 | LCLC-103H | 0.328 | 0.34 | 0.33 | 0.343 | 0.252 | 0.371 | 0.325 | 0.323 | 0.281 | 1.03 | 1.04 | 1.03 | 0.958 | 0.495 | 0.35 | 0.366 | 0.308 | 0.214
10 | RERF-LC-KJ | 0.416 | 0.484 | 0.395 | 0.426 | 0.291 | 0.464 | 0.415 | 0.439 | 0.32 | 0.886 | 0.786 | 0.836 | 0.865 | 0.417 | 0.4 | 0.349 | 0.215 | 0.198
11 | EBC-1 |  |  |  |  |  |  |  |  |  | 0.21 | 0.175 | 0.186 | 0.123 |  |  |  |  | 
12 | HCC-15 | 0.546 | 0.528 | 0.462 | 0.388 | 0.25 | 0.45 | 0.417 | 0.372 | 0.343 | 0.819 | 0.816 | 0.761 | 0.764 | 0.306 | 0.346 | 0.258 | 0.0932 | 0.0635
13 | NCI-H1650 | 0.358 | 0.402 | 0.413 | 0.355 | 0.237 | 0.441 | 0.368 | 0.248 | 0.129 | 0.86 | 0.999 | 0.559 | 0.231 | 0.336 | 0.366 | 0.332 | 0.223 | 0.204
14 | COR-L 105 | 0.402 | 0.517 | 0.404 | 0.41 | 0.274 | 0.559 | 0.512 | 0.452 | 0.315 | 1.03 | 0.717 | 0.464 | 0.287 | 0.372 | 0.291 | 0.309 | 0.273 | 0.286
15 | NCI-H596 | 0.768 | 0.916 | 0.754 | 0.598 | 0.61 | 0.724 | 0.688 | 0.701 | 0.704 | 1.08 | 1.06 | 0.945 | 0.854 | 0.76 | 0.93 | 1.14 | 0.621 | 0.503
